Reference: patent EP4678638A1, “NEW E3 UBIQUITIN LIGASE LIGAND, PROTEIN DEGRADATION AGENT AND USE THEREOF” (priority 2023, dated 2024)
Read-outs that look alike come from different tables or passages of the source.

What was measured:
[1] = system: H2228; experiment: CCK-8 proliferation, NCI-H2228 (H2228); format: cell-based; details: Homo sapiens, NCI-H2228; Table B6, compounds designed based on the ALK inhibitors; H2228 cells; read-out: Inhibitory activity (IC50, nM) on tumor cell proliferation, H2228
How it was run: (§1)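 Tumor cells were cultured at 37°C with 5% CO2, seeded, and after 24h treated with compounds at 10 concentrations starting at 10µM (5-fold serial dilutions).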

[2] = system: H1975; experiment: CCK-8 proliferation, NCI-H1975 (H1975); format: cell-based, Human; details: Homo sapiens, NCI-H1975; Table B6, compounds designed based on the ALK inhibitors; H1975 cells; read-out: Inhibitory activity (IC50, nM) on tumor cell proliferation, H1975
How it was run: as §1

[3] = system: MCF7; experiment: CCK-8 proliferation, MCF7 (MCF-7); format: cell-based; details: Homo sapiens, MCF7
How it was run: as §1

[4] = system: SR; experiment: CCK-8 proliferation, SR; format: cell-based, Human; details: Homo sapiens; Table B6, compounds designed based on the ALK inhibitors; SR cells; read-out: Inhibitory activity (IC50, nM) on tumor cell proliferation, SR
How it was run: as §1

[5] = system: MM.1S; experiment: CCK-8 proliferation, MM.1S; format: cell-based; details: Homo sapiens, MM1.S; Table B6, compounds designed based on the ALK inhibitors; MM.1S cells; read-out: Inhibitory activity (IC50, nM) on tumor cell proliferation, MM.1S
How it was run: as §1

[6] = system: MDA-MB-231; experiment: CCK-8 proliferation, MDA-MB-231; format: cell-based; details: Homo sapiens
Method: The tumor cells used herein were cultured in a cell culture medium listed in table A1 at 37°C in an incubator with 5% CO2. Prior to experimentation, all cell lines used were correctly identified by STR profiling, and tested negative for mycoplasma contamination using a mycoplasma detection kit through routine screenings. Table A1. Tumor cells and cell culture medium used in the present disclosure
IC50 values of the compounds of the present disclosure (including the compounds in Table 1, and compounds of examples) were measured using the Meilun Cell Counting Kit-8 kit from Dalian Meilun Biotech Co., Ltd. Assay details are as follows: tumor cells were seeded in a 96-well plate at a density listed in Table A2. After 24h, 100 µL of the inoculated cells were treated with 0.5µL of the compounds of the present disclosure (including the compounds in Tables 1 and 2, and compounds of examples) at 10 different successively decreasing concentrations (starting at the highest concentration of 10µM; 5-fold serial dilutions). After the cells were treated with the compounds of the present disclosure for a period of time, the cell viability detection reagent was added to the culture medium for cell viability assessment according to the instructions provided with the CCK-8 kit. […] The growth inhibition of the compounds of the present disclosure on cells was plotted by Prism Graphpad software, and the IC50 values of the compounds of the present disclosure were calculated therefrom. […] Seeding protocol and treatment time for tumor cells

[7] = target: T1, ALK (Homo sapiens, UniProt Q96SW2+Q9HC35+Q9UM73); experiment: Western blot degradation of ALK (H2228 Cell); format: cell-based; details: Table D5
T1 construct: evaluate the effects of the compounds of the present disclosure on the expression of target proteins in cells; endogenous in cells; host or cells: H2228
How it was run: (§2)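 After compound exposure, cells were harvested and lysates run on SDS-PAGE, transferred to nitrocellulose and probed with antibodies. Remaining target (%) was computed from band grayscale relative to an internal control protein and normalised; degradation (%) was 100% minus that.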

[8] = target: T2, WEE1 (Homo sapiens, UniProt P30291+Q96SW2); experiment: Western blot degradation of WEE1 (hPBMC); format: cell-based; details: Table D16
T2 construct: evaluate the effects of the compounds of the present disclosure on the expression of target proteins in cells; endogenous in cells; host or cells: hPBMC
How it was run: as §2

[9] = target: T3, IKZF1 (Homo sapiens, UniProt Q13422+Q96SW2); experiment: Western blot degradation of IKZF1 (hPBMC); format: cell-based; details: Table D16
T3 construct: evaluate the effects of the compounds of the present disclosure on the expression of target proteins in cells; endogenous in cells; host or cells: hPBMC
How it was run: as §2

[10] = target: T4, IKZF2 (Homo sapiens, UniProt Q96SW2+Q9UKS7); experiment: Western blot degradation of IKZF2 (hPBMC); format: cell-based; details: Table D16
T4 construct: evaluate the effects of the compounds of the present disclosure on the expression of target proteins in cells; endogenous in cells; host or cells: hPBMC
How it was run: as §2

[11] = target: T5, IKZF3 (Homo sapiens, UniProt Q96SW2+Q9UKT9); experiment: Western blot degradation of IKZF3 (hPBMC); format: cell-based; details: Table D16
T5 construct: evaluate the effects of the compounds of the present disclosure on the expression of target proteins in cells; endogenous in cells; host or cells: hPBMC
How it was run: as §2

[12] = target: T6, CK1a (Homo sapiens, UniProt P48729+Q96SW2); experiment: Western blot degradation of CK1a (hPBMC); format: cell-based; details: Table D16
T6 construct: evaluate the effects of the compounds of the present disclosure on the expression of target proteins in cells; endogenous in cells; host or cells: hPBMC
How it was run: as §2

[13] = target: T7, GSPT1 (Homo sapiens, UniProt P15170+Q96SW2); experiment: Western blot degradation of GSPT1 (hPBMC); format: cell-based; details: Table D16
T7 construct: evaluate the effects of the compounds of the present disclosure on the expression of target proteins in cells; endogenous in cells; host or cells: hPBMC
How it was run: as §2

[14] = Table B6, compounds designed based on the ALK inhibitors, MCF-7 cells, read-out: Inhibitory activity (IC50, nM) on tumor cell proliferation, MCF-7
[15] = Table B6, compounds designed based on the ALK inhibitors, MDA-MB-231 cells, read-out: Inhibitory activity (IC50, nM) on tumor cell proliferation, MDA-MB-231
[16] = MDA-MB-231, CCK-8, 96 hours, read-out: Inhibitory activity (IC50) on tumor cell proliferation, MDA-MB-231

T1 sequence (Q9HC35+Q9UM73 fused): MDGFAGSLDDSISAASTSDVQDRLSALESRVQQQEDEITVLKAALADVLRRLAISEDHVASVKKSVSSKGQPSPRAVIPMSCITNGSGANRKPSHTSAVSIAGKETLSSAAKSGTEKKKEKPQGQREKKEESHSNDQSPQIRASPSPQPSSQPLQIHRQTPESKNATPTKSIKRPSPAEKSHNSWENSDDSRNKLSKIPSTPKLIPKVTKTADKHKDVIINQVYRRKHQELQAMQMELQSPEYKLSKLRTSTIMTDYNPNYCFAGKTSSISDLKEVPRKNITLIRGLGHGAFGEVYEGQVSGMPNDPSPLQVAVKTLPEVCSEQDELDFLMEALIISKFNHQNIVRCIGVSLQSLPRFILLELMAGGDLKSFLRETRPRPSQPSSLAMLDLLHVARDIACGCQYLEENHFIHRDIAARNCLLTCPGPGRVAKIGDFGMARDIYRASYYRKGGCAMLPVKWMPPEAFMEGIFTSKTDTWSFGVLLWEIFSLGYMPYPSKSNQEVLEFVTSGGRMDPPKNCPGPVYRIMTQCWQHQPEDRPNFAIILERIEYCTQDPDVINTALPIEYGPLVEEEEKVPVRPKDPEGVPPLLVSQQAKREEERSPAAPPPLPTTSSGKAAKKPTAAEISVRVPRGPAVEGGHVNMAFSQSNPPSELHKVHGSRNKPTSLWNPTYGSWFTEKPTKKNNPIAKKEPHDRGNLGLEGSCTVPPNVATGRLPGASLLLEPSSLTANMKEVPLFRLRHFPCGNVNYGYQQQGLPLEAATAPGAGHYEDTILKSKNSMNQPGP
T1 sequence (Q96SW2 whole entry): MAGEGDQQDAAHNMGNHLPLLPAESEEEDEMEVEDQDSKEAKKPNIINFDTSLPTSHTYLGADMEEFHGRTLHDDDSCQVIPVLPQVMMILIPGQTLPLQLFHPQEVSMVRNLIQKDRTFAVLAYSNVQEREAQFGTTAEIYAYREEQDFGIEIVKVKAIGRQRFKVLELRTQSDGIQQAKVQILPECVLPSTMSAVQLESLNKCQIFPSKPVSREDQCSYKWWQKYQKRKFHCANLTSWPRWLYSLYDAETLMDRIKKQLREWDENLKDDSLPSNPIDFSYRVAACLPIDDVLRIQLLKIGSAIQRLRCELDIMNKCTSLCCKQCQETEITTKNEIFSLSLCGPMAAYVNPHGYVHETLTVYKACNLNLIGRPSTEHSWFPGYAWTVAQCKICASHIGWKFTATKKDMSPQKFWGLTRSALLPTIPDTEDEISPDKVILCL
T1 sequence (Q16531 whole entry partner): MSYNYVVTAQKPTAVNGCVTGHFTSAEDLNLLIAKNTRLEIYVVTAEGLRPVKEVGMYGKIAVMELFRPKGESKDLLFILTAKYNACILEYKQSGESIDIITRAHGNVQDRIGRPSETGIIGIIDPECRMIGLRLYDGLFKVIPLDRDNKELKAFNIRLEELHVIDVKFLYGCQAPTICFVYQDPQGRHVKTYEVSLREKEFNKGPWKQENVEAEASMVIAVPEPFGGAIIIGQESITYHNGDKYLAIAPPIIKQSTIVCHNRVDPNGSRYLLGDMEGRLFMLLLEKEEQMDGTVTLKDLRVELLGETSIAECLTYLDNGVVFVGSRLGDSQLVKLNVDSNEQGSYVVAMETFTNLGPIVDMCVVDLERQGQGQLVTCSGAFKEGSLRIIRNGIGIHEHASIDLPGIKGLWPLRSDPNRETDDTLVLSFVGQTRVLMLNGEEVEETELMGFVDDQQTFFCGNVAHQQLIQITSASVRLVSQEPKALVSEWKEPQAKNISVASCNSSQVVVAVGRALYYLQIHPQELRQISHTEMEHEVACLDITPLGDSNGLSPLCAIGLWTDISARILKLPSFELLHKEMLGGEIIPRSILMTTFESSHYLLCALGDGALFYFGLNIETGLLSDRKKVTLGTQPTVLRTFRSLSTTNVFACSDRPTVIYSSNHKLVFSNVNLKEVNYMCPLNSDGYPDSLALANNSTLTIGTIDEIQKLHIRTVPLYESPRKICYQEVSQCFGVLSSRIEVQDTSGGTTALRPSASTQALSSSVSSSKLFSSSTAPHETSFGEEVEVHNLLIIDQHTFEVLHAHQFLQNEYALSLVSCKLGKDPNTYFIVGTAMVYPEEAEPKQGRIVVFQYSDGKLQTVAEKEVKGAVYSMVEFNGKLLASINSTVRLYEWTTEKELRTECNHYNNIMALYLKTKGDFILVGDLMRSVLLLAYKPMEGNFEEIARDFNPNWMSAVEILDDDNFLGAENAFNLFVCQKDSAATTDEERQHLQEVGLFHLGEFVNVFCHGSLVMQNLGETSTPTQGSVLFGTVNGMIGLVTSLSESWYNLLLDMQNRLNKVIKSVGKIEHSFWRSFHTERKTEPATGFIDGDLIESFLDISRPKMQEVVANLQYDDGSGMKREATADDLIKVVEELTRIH
T2 sequence (P30291 whole entry): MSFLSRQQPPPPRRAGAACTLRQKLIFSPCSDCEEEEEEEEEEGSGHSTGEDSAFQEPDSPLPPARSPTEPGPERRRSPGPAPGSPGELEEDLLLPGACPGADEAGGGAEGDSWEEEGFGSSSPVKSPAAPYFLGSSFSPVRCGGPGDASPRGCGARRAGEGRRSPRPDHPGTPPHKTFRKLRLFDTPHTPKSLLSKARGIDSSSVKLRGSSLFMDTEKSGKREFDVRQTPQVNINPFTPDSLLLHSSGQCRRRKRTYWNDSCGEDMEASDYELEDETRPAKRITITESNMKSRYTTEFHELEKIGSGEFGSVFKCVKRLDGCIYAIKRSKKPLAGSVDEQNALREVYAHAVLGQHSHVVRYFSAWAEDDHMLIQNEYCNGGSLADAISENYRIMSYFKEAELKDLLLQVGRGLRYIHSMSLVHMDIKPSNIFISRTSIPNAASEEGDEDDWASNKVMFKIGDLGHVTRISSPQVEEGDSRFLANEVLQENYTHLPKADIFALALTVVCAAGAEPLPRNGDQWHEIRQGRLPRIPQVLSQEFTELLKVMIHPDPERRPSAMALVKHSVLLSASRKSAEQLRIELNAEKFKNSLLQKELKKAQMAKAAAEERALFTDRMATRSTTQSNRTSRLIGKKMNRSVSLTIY
T2 sequence (Q96SW2 whole entry): as the sequence (Q96SW2 whole entry) above
T2 sequence (Q16531 whole entry partner): as the sequence (Q16531 whole entry partner) above
T6 sequence (P48729 whole entry): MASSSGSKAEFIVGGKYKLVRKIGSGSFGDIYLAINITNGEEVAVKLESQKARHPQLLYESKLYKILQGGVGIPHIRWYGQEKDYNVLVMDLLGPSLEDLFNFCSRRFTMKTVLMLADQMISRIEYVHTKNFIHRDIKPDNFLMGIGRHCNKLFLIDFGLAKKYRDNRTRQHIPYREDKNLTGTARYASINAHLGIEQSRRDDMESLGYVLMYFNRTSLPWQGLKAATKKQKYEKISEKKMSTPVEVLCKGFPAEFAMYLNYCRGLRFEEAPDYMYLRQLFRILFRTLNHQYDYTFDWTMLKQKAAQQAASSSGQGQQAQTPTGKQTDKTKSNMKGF
T6 sequence (Q96SW2 whole entry): as the sequence (Q96SW2 whole entry) above
T6 sequence (Q16531 whole entry partner): as the sequence (Q16531 whole entry partner) above
T5 sequence (Q9UKT9 whole entry): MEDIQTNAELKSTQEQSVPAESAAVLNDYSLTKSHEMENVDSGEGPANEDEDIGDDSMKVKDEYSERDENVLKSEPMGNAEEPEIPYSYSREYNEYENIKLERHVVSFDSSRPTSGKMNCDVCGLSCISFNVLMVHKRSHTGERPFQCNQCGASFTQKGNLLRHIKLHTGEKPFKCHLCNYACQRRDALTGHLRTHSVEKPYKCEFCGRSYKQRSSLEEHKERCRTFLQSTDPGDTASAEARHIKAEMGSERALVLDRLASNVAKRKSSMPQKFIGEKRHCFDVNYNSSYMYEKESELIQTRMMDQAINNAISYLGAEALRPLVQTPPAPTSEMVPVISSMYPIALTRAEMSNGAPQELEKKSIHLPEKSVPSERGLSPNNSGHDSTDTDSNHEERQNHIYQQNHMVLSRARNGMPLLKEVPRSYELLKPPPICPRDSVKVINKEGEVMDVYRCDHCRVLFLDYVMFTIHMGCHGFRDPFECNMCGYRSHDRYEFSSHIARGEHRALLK
T5 sequence (Q96SW2 whole entry): as the sequence (Q96SW2 whole entry) above
T5 sequence (Q16531 whole entry partner): as the sequence (Q16531 whole entry partner) above
T7 sequence (P15170 whole entry): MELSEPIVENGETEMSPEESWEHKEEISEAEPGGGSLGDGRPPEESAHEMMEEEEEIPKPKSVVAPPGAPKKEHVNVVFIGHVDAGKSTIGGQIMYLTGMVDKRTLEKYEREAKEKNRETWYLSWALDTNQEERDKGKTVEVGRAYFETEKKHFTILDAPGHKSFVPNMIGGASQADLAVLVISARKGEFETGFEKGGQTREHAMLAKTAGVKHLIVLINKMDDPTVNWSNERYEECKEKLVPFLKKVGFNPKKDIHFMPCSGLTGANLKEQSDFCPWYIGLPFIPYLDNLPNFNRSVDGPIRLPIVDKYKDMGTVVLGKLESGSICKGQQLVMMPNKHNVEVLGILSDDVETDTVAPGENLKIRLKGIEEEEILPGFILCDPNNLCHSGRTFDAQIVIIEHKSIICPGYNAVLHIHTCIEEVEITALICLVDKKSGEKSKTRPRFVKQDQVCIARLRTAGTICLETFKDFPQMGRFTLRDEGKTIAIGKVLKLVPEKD
T7 sequence (Q96SW2 whole entry): as the sequence (Q96SW2 whole entry) above
T7 sequence (Q16531 whole entry partner): as the sequence (Q16531 whole entry partner) above

Row | IC50 [1] [nM] | IC50 [2] [nM] | IC50 [3, 14] [nM] | IC50 [5] [nM] | IC50 [6, 15] [nM] | IC50 ([3]; CCK-8, read-out: Inhibitory activity (IC50) on tumor cell proliferation, MCF-7) [nM] | IC50 [6, 16] [nM] | SMILES | IC50 [4] [nM] | Degradation of substrate protein ALK (substrate protein remaining %) [7] | Degradation of substrate protein WEE1 (substrate protein remaining %) [8] | Degradation of substrate protein IKZF1 (substrate protein remaining %) [9] | Degradation of substrate protein IKZF2 (substrate protein remaining %) [10] | Degradation of substrate protein IKZF3 (substrate protein remaining %) [11] | Degradation of substrate protein CKla (substrate protein remaining %) [12] | Degradation of substrate protein GSPT1 (substrate protein remaining %) [13]
1 | 10 to 50 | 100 to 500 | 100 to 500 | 500 to 1000 | 100 to 500 | – | – | COc1cc(N2CCC(N3CCN(Cc4cc(N5CCC(=O)NC5=O)ncc4F)CC3)CC2)ccc1Nc1ncc(Cl)c(Nc2ccccc2P(C)(C)=O)n1 [GT-07608, 1-(4-((4-(1-(4-((5-chloro-4-((2-(dimethylphosphoryl)phenyl)amino)pyrimidin-2-yl)amino)-3-methoxyphenyl)piperidin-4-yl)piperazin-1-yl)methyl)-5-fluoropyridin-2-yl)dihydropyrimidine-2,4(1H,3H)-dione] | 1 to 10 | A (A is defined as 0% ≤ substrate protein remaining % ≤ 80%) | – | – | – | – | – | –
2 | 10 to 50 | 100 to 500 | 100 to 500 | 500 to 1000 | 500 to 1000 | – | – | COc1cc(N2CCC(N3CCN(Cc4ccnc(N5CCC(=O)NC5=O)c4)CC3)CC2)ccc1Nc1ncc(Cl)c(Nc2ccccc2P(C)(C)=O)n1 [GT-07609, 1-(4-((4-(1-(4-((5-chloro-4-((2-(dimethylphosphoryl)phenyl)amino)pyrimidin-2-yl)amino)-3-methoxyphenyl)piperidin-4-yl)piperazin-1-yl)methyl)pyridin-2-yl)dihydropyrimidine-2,4(1H,3H)-dione] | 1 to 10 | A (A is defined as 0% ≤ substrate protein remaining % ≤ 80%) | – | – | – | – | – | –
3 | 10 to 50 | 100 to 500 | 100 to 500 | 500 to 1000 | 100 to 500 | – | – | COc1cc(N2CCC(N(C)Cc3ccc(N4CCC(=O)NC4=O)cc3)CC2)ccc1Nc1ncc(Cl)c(Nc2ccccc2P(C)(C)=O)n1 [GT-07615, 1-(4-(((1-(4-((5-chloro-4-((2-(dimethylphosphoryl)phenyl)amino)pyrimidin-2-yl)amino)-3-methoxyphenyl)piperidin-4-yl)(methyl)amino)methyl)phenyl)dihydropyrimidine-2,4(1H,3H)-dione] | 1 to 10 | A (A is defined as 0% ≤ substrate protein remaining % ≤ 80%) | – | – | – | – | – | –
4 | – | – | – | – | – | 1000 to 5000 | 1000 to 5000 | O=C1CCN(c2cnc(F)c(CCl)c2)C(=O)N1 [GT-07633, 1-(5-(Chloromethyl)-6-fluoropyridin-3-yl)dihydropyrimidine-2,4(1H,3H)-dione] | – | – | A (A is defined as 0% ≤ substrate protein remaining % ≤ 80%) | B (B is defined as substrate protein remaining % > 80%) | A (A is defined as 0% ≤ substrate protein remaining % ≤ 80%) | B (B is defined as substrate protein remaining % > 80%) | A (A is defined as 0% ≤ substrate protein remaining % ≤ 80%) | B (B is defined as substrate protein remaining % > 80%)
5 | – | – | – | – | – | – | 1000 to 5000 | O=C1CCN(c2cnc(CCl)cn2)C(=O)N1 [GT-07635, 1-(5-(Chloromethyl)pyrazin-2-yl)dihydropyrimidine-2,4(1H,3H)-dione] | – | – | A (A is defined as 0% ≤ substrate protein remaining % ≤ 80%) | A (A is defined as 0% ≤ substrate protein remaining % ≤ 80%) | A (A is defined as 0% ≤ substrate protein remaining % ≤ 80%) | A (A is defined as 0% ≤ substrate protein remaining % ≤ 80%) | A (A is defined as 0% ≤ substrate protein remaining % ≤ 80%) | B (B is defined as substrate protein remaining % > 80%)
